Test results taken from patent publication EP0189629A1, “Method of treatment of viral diseases in plants utilizing ribavirin” (VIRATEK, INC., priority 1985, dated 1986).

Columns and labels:
Solubility = format: physicochemical; conditions: for solubility in other solvents: alcohol (5-15% by volume) and water, DMF (5-25%) and water, DMSO (5-25%) and water, DMSO alone
Text: Another potential use of Ribavirin is to eliminate viruses or maintain plant tissues in a virus-free state during routine propagation techniques that are presently being developed. One example is the use of encapsulated somatic embryos to propagate somatic tissues to prevent sexual variation or the need for more extensive plant breeding. Ribavirin may be especially useful in maintaining virus-free plants by its application to somatic embryos. Certain plants can be propagated asexually precluding genetic changes in progeny which might otherwise occur by sexual propagation from seed. Treatment of somatic embryos with Ribavirin prior to encapsulation will preserve plant progeny in a virus--free state. The compound could also be used in combination with newly developed plant genetic engineering procedures where the Ribavirin could be incorporated into normal propagation procedures. […] The compounds are also soluble in solutions of alcohol (5-15% by volume) and water, dimethylformamide (DMF) (5-25%) and water, dimethyl sulfoxide (DMSO) (5-25%) and water and dimethyl sulfoxide alone.

TMV [1] = assay: TMV multiplication in leaf cells, treatment soon after inoculation; format: cell-based; conditions: treatment began soon after inoculation
TMV [2] = assay: TMV multiplication in inoculated unorganized callus cells; format: cell-based; conditions: callus cells inoculated with TMV, single agent
plant virus groups = assay: Spectrum of activity against plant virus groups and plant viral diseases
[3] = test system: Odontoglossum ring spot virus (ORSV); assay: ORSV-infected Cymbidium meristem/protocorm culture, ELISA; format: cell-based
Description: Odontoglossum ring spot virus (ORSV) - infected Cymbidium mother plants have been regenerated in the presence of Ribavirin. Meristems or protocorms of Cymbidium were cultured on liquid or solid (0.7% agar) KNUDSON C medium, as modified for orchids by MOREL.
(§1) Although the proportion of healthy plants obtained by this technique is usually high, it requires complex media and the rate of regrowth of meristematic explants is low. Menstems were cultured on MURASHIGE and SKOOG medium- supplanted with vitamin 85, and with growth substances. Other explants (shoots, fragment of shoots, stem--fragments) were grown on MURASHIGE and SKOOG medium without addition of growth substances. The presence of potato virus Y in plant material was controlled before and after in vitro culture, by biological indexing on tobacco test plants, or by serology (ELISA). Results thus obtained confirmed the elimination of potato virus Y from infected plants by meristem culture. […] Cymbidium protocorms infected with odontoglossum ring spot virus were placed for proliferation on liquid KNUDSON C medium containing 0, 10, 25 or 40 ppm of Ribavirin.

[4] = test system: lily symptomless virus (LSV) and tulip breaking virus (TBV); assay: Lily meristem culture, virus testing by ELISA, immuno-diffusion drop test and electron microscopy; format: cell-based; conditions: 40.0 uM Ribavirin
Description: Other experiments were performed with Lilium Lon- oifiorum "Arai" which has been described as difficult to obtain free of virus, and with Lilium"Enchantment", both containing lily symptomless virus (LSV) and tulip breaking virus (TBV). Meristems, induced on media with or without Ribavirin, were isolated and subsequently cultured on a medium without Ribavirin. […] Leaf samples of the plants were tested for the presence of LSV and TBV by means of ELISA, the immuno-diffusion drop test and electron microscopy.

potato virus Y = assay: In vitro culture of meristems and other explants of potato virus Y-infected potato; format: cell-based
Description: as §1

Lilium = assay: Lily meristem culture, meristem formation and bulb growth; format: cell-based
[5] = test system: orchid strain of tobacco mosaic virus (TMV-0); assay: Cymbidium orchid tissue culture, virus titers by electron micrography and serological test; format: cell-based; conditions: 30, 100, 300 and 1,000 ppm Ribavirin; 200 ppm DMSO in all treatments
Description: Ribavirin concentrations from 30 to 1,000 ppm have been included in tissue culture media in which orchids are being cloned, and used to drench and spray whole orchid plants in a controlled way. Virus titers were determined by transmission electron micrography and ELIZA serological tests. In order to enhance penetration of Ribavirin, 200 ppm of Dimethylsulfoxide - (DMSO) was included in all treatments including controls.

[6] = test system: protocorms of healthy Cymbidium; assay: Growth of healthy Cymbidium protocorms on medium containing Ribavirin; format: cell-based
Description: Meristems or protocorms of Cymbidium were cultured on liquid or solid (0.7% agar) KNUDSON C medium, as modified for orchids by MOREL.

TMV [7] = assay: TMV-infected tobacco callus growth and shoot regeneration on medium containing chemical; format: cell-based

CC(=O)OC[C@H]1O[C@@H](n2cnc(C(N)=O)n2)[C@H](OC(C)=O)[C@@H]1OC(C)=O [2,3,5--triacetyl]
solubility in other solvents (Solubility): also soluble | solubility in water (Solubility): soluble in water

Nc1ncnc2c1ncn2[C@@H]1O[C@H](CO)[C@@H](O)[C@@H]1O [Adenine Arabinoside]
multiplication of TMV in leaf cells (TMV [1]): effectively inhibited | multiplication of TMV in unorganized callus cells (TMV [2]): neither inhibited

CCCC(=O)OC[C@H]1O[C@@H](n2cnc(C(N)=O)n2)[C@H](O)[C@@H]1O [5'-butyryl]
solubility in other solvents (Solubility): also soluble | solubility in water (Solubility): soluble in water

NC(=O)c1ncn([C@@H]2O[C@H](CO)[C@@H](O)[C@H]2O)n1 [Ribavirin, 1-β-D-ribofuranosyl-1,2,4-triazole-3-carboxamide]
effectiveness against plant viral diseases (plant virus groups; crops and viruses listed in the 2nd table and the 3rd table): effective | activity against plant virus groups (plant virus groups; potexviruses, potyviruses, closteroviruses, tymoviruses, carlaviruses, cucumoviruses, ilarviruses, tombusviruses, tomato spotted wilt virus, alfalfa mosaic virus): active | sensitivity of plant virus groups to Ribavirin (plant virus groups; tobamovirus and bromovirus groups): only slightly sensitive | multiplication of TMV in leaf cells (TMV [1]): effectively inhibited | solubility in other solvents (Solubility): also soluble | solubility in water (Solubility): soluble in water | multiplication of ORSV in Cymbidium protocorms ([3]; 10 ppm, liquid KNUDSON C medium, three monthly subcultures): did not inhibit | virus concentration in Cymbidium protocorms ([3]; 25 ppm, liquid KNUDSON C medium, monthly subcultures): decreased progressively | ORSV detection by ELISA test ([3]; from the sixth subculture, regeneration in the presence of Ribavirin): no longer detectible | percentage of plants infected with LSV and/or TBV ([4]; L. "Enchantment"): the effect is less clear | percentage of plants infected with LSV and/or TBV ([4]; L. Lonaiflorum "Arai"): reduced | regeneration rate in meristem culture (potato virus Y; 10, 25 and 50 ppm, meristems of potato virus Y-infected potato): enhanced the regeneration rate | number of virus-free plants obtained after in vitro culture (potato virus Y; 25 or 50 ppm, shoots, shoot pieces and stem-fragments, three to four weeks): significantly enhanced | phytotoxicity in meristem culture (potato virus Y; virus-inhibiting concentrations, meristem culture of potato virus Y-infected potato): phytotoxicity at virus-inhibiting concentrations | multiplication of TMV in unorganized callus cells (TMV [2]): neither inhibited | bulb growth (Lilium; 400.0 uM): severely reduced | number of adventitiously formed meristems and average bulb weight (Lilium; concentration range 0.0-40.0 uM): not significantly influenced | virus status of new growth of Cymbidium tissue cultures [5]: developed virus-free new growth | growth of healthy Cymbidium protocorms ([6]; 50 ppm, after four weeks of culture): became necrotic | growth of healthy Cymbidium protocorms ([6]; media containing 0, 10 or 25 ppm): grew well | TMV in newly developed tobacco callus or shoots (TMV [7]; callus from TMV-infected pith tissue grown on medium with Ribavirin): still contained TMV | tobacco callus growth and differentiation (TMV [7]; concentration twice that required to inhibit TMV multiplication in leaf disks): grew and differentiated
